Experimental data reported in patent US6930185B2, “Melanin-concentrating hormone antagonist” (Takeda Chemical Industries, Ltd., priority 2000, dated 2005).

| melting point | SMILES |
| --- | --- |
| 191 to 194 °C | CN(C)Cc1ccc2cc(NC(=O)c3ccc(-c4ccccc4)cc3)ccc2n1 [Example 15, N-[2-[(Dimethylamino)methyl]-6-quinolinyl][1,1′-biphenyl]-4-carboxamide] |
| 211 to 213 °C | O=C(Nc1ccc2nc(CN3CCCCC3)ccc2c1)c1ccc(-c2ccc(Cl)cc2)cc1 [Example 10, 4′-Chloro-N-[2-(1-piperidinylmethyl)-6-quinolinyl][1,1′-biphenyl]-4-carboxamide] |
| 210 °C | O=C(Nc1ccc2nc(CN3CCCC3)ccc2c1)c1ccc(-c2ccc(F)cc2)nc1 [Example 45, 6-(4-Fluorophenyl)-N-[2-(1-pyrrolidinylmethyl)-6-quinolinyl]nicotinamide] |
| 225 to 227 °C | O=C(Nc1ccc2nc(CN3CCCC3)ccc2c1)c1ccc(-c2ccc(Cl)cc2)nc1 [Example 44, 6-(4-Chlorophenyl)-N-[2-(1-pyrrolidinylmethyl)-6-quinolinyl]nicotinamide] |
| 202 to 204 °C | O=C(Nc1ccc2nc(CN3CCCCC3)ccc2c1)c1ccc(-c2ccc(F)cc2)cc1 [Example 9, 4′-Fluoro-N-[2-(1-piperidinylmethyl)-6-quinolinyl][1,1′-biphenyl]-4-carboxamide] |
| 212 to 220 °C (dec.) | CC1=NCCN1Cc1ccc2cc(NC(=O)c3ccc(-c4ccccc4)cc3)ccc2n1 [Example 93, N-[2-[(2-Methyl-4,5-dihydro-1H-imidazol-1-yl)methyl]-6-quinolinyl][1,1′-biphenyl]-4-carboxamide] |
| 206 to 207 °C (dec.) | Cc1ccc(-c2ccc(C(=O)Nc3ccc4nc(CN5CCCCC5)ccc4c3)cn2)cc1 [Example 58, 6-(4-Methylphenyl)-N-[2-(1-piperidinylmethyl)-6-quinolinyl]nicotinamide] |
| 172 to 174 °C | COC[C@@H]1CCCN1Cc1ccc2cc(NC(=O)c3ccc(-c4ccc(Cl)cc4)cc3)ccc2n1 [Example 117, 4′-Chloro-N-[2-[[(2S)-2-(methoxymethyl)pyrrolidinyl]-methyl]-6-quinolinyl][1,1′-biphenyl]-4-carboxamide] |
| 219 to 221 °C | CN(C)Cc1ccc2cc(NC(=O)c3ccc(-c4ccc(Cl)cc4)cc3)ccc2n1 [Example 6, 4′-Chloro-N-[2-[(N,N-dimethylamino)methyl]-6-quinolinyl][1,1′-biphenyl]-4-carboxamide] |
| 192 to 194 °C | COc1ccc(-c2ccc(C(=O)Nc3ccc4nc(CN5CCCCC5)ccc4c3)cc2)cc1 [Example 56, 4′-Methoxy-N-[2-(1-piperidinylmethyl)-6-quinolinyl][1,1′-biphenyl]-4-carboxamide] |
| 205 to 208 °C | CN(C)Cc1ccc2cc(NC(=O)c3ccc(-c4ccc(F)cc4)cc3)ccc2n1 [Example 16, N-[2-[(Dimethylamino)methyl]-6-quinolinyl]-4′-fluoro[1,1′-biphenyl]-4-carboxamide] |
| 197 to 199 °C | COc1ccc(-c2ccc(C(=O)Nc3ccc4nc(CN5CCCC5)ccc4c3)cc2)cc1 [Example 62, 4′-Methoxy-N-[2-(1-pyrrolidinylmethyl)-6-quinolinyl][1,1′-biphenyl]-4-carboxamide] |
| 214 to 216 °C | Cc1ccc(-c2ccc(C(=O)Nc3ccc4nc(CN5CCOCC5)ccc4c3)cn2)cc1 [Example 14, 6-(4-Methylphenyl)-N-[2-(4-morpholinylmethyl)-6-quinolinyl]nicotinamide] |
| 208 to 209 °C | CC(C)N(Cc1ccc2cc(NC(=O)c3ccc(-c4ccccc4)cc3)ccc2n1)C(C)C [Example 133, N-[2-[(Diisopropylamino)methyl]-6-quinolinyl][1-1′-biphenyl]-4-carboxamide] |
| 192 to 193 °C | Cc1ccc(-c2ccc(C(=O)Nc3ccc4nc(CN5CCCC5)ccc4c3)cc2)cc1 [Example 61, 4′-Methyl-N-[2-(1-pyrrolidinylmethyl)-6-quinolinyl][1,1′-biphenyl]-4-carboxamide] |

More lines, now with the values behind:

| SMILES | melting point |
| --- | --- |
| Cc1ccc(-c2ccc(C(=O)Nc3ccc4nc(CN5C(C)(C)CCCC5(C)C)ccc4c3)cn2)cc1 [Example 73, 6-(4-Methylphenyl)-N-[2-[(2,2,6,6-tetramethyl-1-piperidinyl)methyl]-6-quinolinyl]nicotinamide] | 246 to 247 °C |
| O=C(Nc1ccc2nc(CN3CCCC3)ccc2c1)N1CCC(c2ccc(F)cc2)CC1 [Example 38, 4-(4-Fluorophenyl)-N-[2-(1-pyrrolidinylmethyl)-6-quinolinyl]-1-piperidinecarboxamide] | 206 to 207 °C |
| O=C(Nc1ccc2nc(CN3CCCC3)ccc2c1)C1CCN(c2ccc(Cl)cc2)CC1 [Example 52, 1-(4-Chlorophenyl)-N-[2-(1-pyrrolidinylmethyl)-6-quinolinyl]-4-piperidinecarboxamide] | 204 to 206 °C |
| Cc1ccc(C2CCN(C(=O)Nc3ccc4nc(CN5C(C)(C)CCCC5(C)C)ccc4c3)CC2)cc1 [Example 75, 4-(4-Methylphenyl)-N-[2-[(2,2,6,6-tetramethyl-1-piperidinyl)methyl]-6-quinolinyl]-1-piperidinecarboxamide] | 200 to 202 °C |
| Cc1ccc(C2CCN(C(=O)Nc3ccc4nc(CN5CCCC5)ccc4c3)CC2)cc1 [Example 41, 4-(4-Methylphenyl)-N-[2-(1-pyrrolidinylmethyl)-6-quinolinyl]-1-piperidinecarboxamide] | 214 to 216 °C |
| COc1ccc(-c2ccc(C(=O)Nc3ccc4nc(CN(C(C)C)C(C)C)ccc4c3)cc2)cc1 [Example 134, N-[2-[(Diisopropylamino)methyl]-6-quinolinyl]-4′-methoxy[1-1′-biphenyl]-4-carboxamide] | 223 to 225 °C |
| O=C(Nc1ccc2nc(CN3CCCCC3)ccc2c1)N1CCC(c2ccc(Cl)cc2)CC1 [Example 63, 4-(4-Chlorophenyl)-N-[2-(1-piperidinylmethyl)-6-quinolinyl]-1-piperidinecarboxamide] | 214 to 217 °C (dec.) |
| O=C(Nc1ccc2cc(CN3CCCC3)ccc2c1)N1CCC(c2ccccc2)CC1 [Example 102, 4-Phenyl-N-[6-(1-pyrrolidinylmethyl)-2-naphthyl]-1-piperidinecarboxamide] | 193 to 195 °C |
| CC1(C)CCCC(C)(C)N1Cc1ccc2cc(NC(=O)c3ccc(-c4ccc(Cl)cc4)nc3)ccc2n1 [Example 72, 6-(4-Chlorophenyl)-N-[2-[(2,2,6,6-tetramethyl-1-piperidinyl)methyl]-6-quinolinyl]nicotinamide] | 258 to 259 °C |
| COc1ccc(-c2ccc(C(=O)Nc3ccc4nc(CN5CCCCC5)ccc4c3)cn2)cc1 [Example 60, 6-(4-Methoxyphenyl)-N-[2-(1-piperidinylmethyl)-6-quinolinyl]nicotinamide] | 210 to 211 °C (dec.) |
| O=C(Nc1ccc2nc(CN3CCCCC3)ccc2c1)c1ccc(-c2ccc(F)cc2)nc1 [Example 59, 6-(4-Fluorophenyl)-N-[2-(1-piperidinylmethyl)-6-quinolinyl]nicotinamide] | 209 to 210 °C (dec.) |
| COc1ccc(C2CCN(C(=O)Nc3ccc4cc(CN5CCCC5)ccc4c3)CC2)cc1 [Example 100, 4-(4-Methoxyphenyl)-N-[6-(1-pyrrolidinylmethyl)-2-naphthyl]-1-piperidinecarboxamide] | 194 to 196 °C |
| Cc1ccc(-c2ccc(C(=O)Nc3ccc4cc(CN5C(C)(C)CCCC5(C)C)ccc4c3)cc2)cc1 [Example 122, 4′-Methyl-N-[6-[(2,2,6,6-tetramethyl-1-piperidinyl)methyl]-2-naphthyl][1,1′-biphenyl]-4-carboxamide] | 235 to 237 °C |
| CC1(C)CCCC(C)(C)N1Cc1ccc2cc(NC(=O)c3ccc(-c4ccc(F)cc4)cc3)ccc2c1 [Example 121, 4′-Fluoro-N-[6-[(2,2,6,6-tetramethyl-1-piperidinyl)methyl]-2-naphthyl][1,1′-biphenyl]-4-carboxamide] | 238 to 241 °C |
| CC(C)N(Cc1ccc2cc(NC(=O)c3ccc(-c4ccc(Cl)cc4)cc3)ccc2c1)C(C)C [Example 124, 4′-Chloro-N-[6-[(diisopropylamino)methyl]-2-naphthyl][1,1′-biphenyl]-4-carboxamide] | 246 to 250 °C |
| CC1(C)CCCC(C)(C)N1Cc1ccc2cc(NC(=O)c3ccc(-c4ccc(Cl)cc4)cc3)ccc2c1 [Example 123, 4′-Chloro-N-[6-[(2,2,6,6-tetramethyl-1-piperidinyl)methyl]-2-naphthyl][1,1′-biphenyl]-4-carboxamide] | 244 to 246 °C |
| COc1ccc(C2CCN(C(=O)Oc3ccc4cc(CN5CCCC5)ccc4c3)CC2)cc1 | 127 to 129 °C |
| O=C(Nc1ccc2nc(CN3CCCC3)ccc2c1)N1CCC(c2ccc(Cl)cc2)CC1 [Example 40, 4-(4-Chlorophenyl)-N-[2-(1-pyrrolidinylmethyl)-6-quinolinyl]-1-piperidinecarboxamide] | 205 °C (dec.) |
| O=C(Nc1ccc2nc(CN3CCCCC3)ccc2c1)N1CCC(c2ccc(F)cc2)CC1 [Example 65, 4-(4-Fluorophenyl)-N-[2-(1-piperidinylmethyl)-6-quinolinyl]-1-piperidinecarboxamide] | 203 to 204 °C (dec.) |
| O=C(Oc1ccc2cc(CN3CCCC3)ccc2c1)N1CCC(c2ccc(F)cc2)CC1 | 106 to 108 °C |
| O=C(Nc1ccc2nc(CN3CCCCC3)ccc2c1)c1ccc(-c2ccc(F)cc2F)nc1 [Example 69, 6-(2,4-Difluorophenyl)-N-[2-(1-piperidinylmethyl)-6-quinolinyl]nicotinamide] | 182 to 183 °C |
| Cc1ccc(C2CCN(C(=O)Nc3ccc4nc(CN5[C@H](C)CCC[C@@H]5C)ccc4c3)CC2)cc1 [Example 86, 4-(4-Methylphenyl)-N-[2-[(cis-2,6-dimethyl-1-piperidinyl)methyl]-6-quinolinyl]-1-piperidinecarboxamide] | 177 to 178 °C (dec.) |
| COc1ccc(C2CCN(C(=O)Nc3ccc4cc(CN5C(C)(C)CCCC5(C)C)ccc4c3)CC2)cc1 [Example 119, 4-(4-Methoxyphenyl)-N-[6-[(2,2,6,6-tetramethyl-1-piperidinyl)methyl]-2-naphthyl]-1-piperidinecarboxamide] | 164 to 166 °C |
| O=C(Oc1ccc2cc(CN3CCCC3)ccc2c1)N1CCC(c2ccc(Cl)cc2)CC1 | 121 to 123 °C |
